Here are results for 13 molecules from patent US11377441B2, “Covalent inhibitors of KRAS” (Araxes Pharma LLC, priority 2017, dated 2022).

This experiment concerns the target T1, KRAS G12C 1-169, his-tagged protein, GDP-loaded (Homo sapiens, UniProt P01116, G12C).
T1 construct: KRAS G12C 1-169, his-tagged protein, GDP-loaded
The experiment can be described thus: Biochemical assay: covalent modification of KRAS G12C measured by mass spectrometry (RapidFire/TOF or Q-Exactive). The note with it: covalent binding to (modification of) KRAS G12C after a ten minute incubation period. In kind it is binding. The protocol: Test compounds were prepared as 10 mM stock solutions in DMSO (Fisher cat #BP-231-100). KRAS G12C 1-169, his-tagged protein, GDP-loaded is diluted to 2 μM or 0.5 μM in buffer (20 mM Hepes, 150 mM NaCl, 1 mM MgCl2). Compounds were tested for activity as follows:
Compounds were diluted to 50× final test concentration in DMSO in 96-well storage plates. Compound stock solutions were vortexed before use and observed carefully for any sign of precipitation. Dilutions are as follow: • For 100 μM final compound concentration, compounds were diluted to 5000 μM (5 μL 10 mM compound stock+5 μL DMSO and mixed well by pipetting. • For 30 μM final compound concentration, compounds were diluted to 1500 μM (3 μL 10 mM compound stock+17 μL DMSO) and mixed well by pipetting. • For 10 μM final compound concentration, compounds were diluted to 500 μM (2 μL 10 mM compound stock+38 μL DMSO) and mixed well by pipetting. 49 μL of the stock protein solution was added to each well of a 96-well PCR plate (Fisher cat #1423027). 1 μL of the diluted 50× compounds were added to appropriate wells in the PCR plate using 12-channel pipettor. Reactions were mixed carefully and thoroughly by pipetting up/down with a 200 μL multi-channel pipettor. The plate was sealed well with aluminum plate seal, and stored in drawer at room temperature for 10 minutes, 30 minutes, 2 hours or 24 hours. 5 μL of 2% formic acid (Fisher cat #A117) in de-ionized H2O was then added to each well followed by mixing with a pipette. The plate was then resealed with aluminum seal and stored on dry ice until analyzed as described below.
The above described assays were analyzed by mass spectrometry according to one of the following two procedures:
The MS instrument was set to positive polarity, 2 GHz resolution, and low mass (1700) mode and allowed to equilibrate for 30 minutes. The instrument was then calibrated, switched to acquisition mode and the appropriate method loaded.
After another 30 minute equilibration time, a blank batch (i.e., buffer) was run to ensure equipment is operating properly. The samples were thawed at 37° C. for 10 minutes, briefly centrifuged, and transfer to the bench top. Wells A1 and H12 were spiked with 1 μL 500 μM internal standard peptide, and the plates centrifuged at 2000×g for 5 minutes. The method was then run and masses of each individual well recorded.
The masses (for which integration data is desired) for each well were pasted into the platemap and exported from the analysis. Masses for the internal standards were exported as well. The data at 50 ppm was extracted for the +19 charge state, and identity of well A1 was assigned using the internal standard spike and integrated. Peak data was exported as a TOF list and the above steps were repeated individually, for the +20, 21, 22, 23, 24, and 25 charge states.
The masses and peak intensities of KRAS G12C protein species were measured using a Dionex RSLCnano system (Thermo Scientific) connected to a Q Exactive Plus mass spectrometer (Thermo Scientific).
[…] of sample was each loaded onto a Aeris™ 3.6 μm WIDEPORE C4 200 Å, LC Column 50×2.1 mm column maintained at 40° C. at a flow rate of 600 μL/min with 20% Solvent A (0.1% formic acid in H2O) and […] (0.1% formic acid in acetonitrile). The liquid chromatography conditions were 20% solvent B for 1 minute, 20% to 60% solvent B for 1.5 minutes, 60% to 90% solvent for 0.5 minute, 90% solvent B for 0.2 minute, 90% to 20% solvent B for 0.2 minute, and then equilibrated for 1.6 minutes before the following sample injection. The flow rate was maintained at 600 μL/min throughout the sample analysis.
The mass spectrometer was operated in profile mode at a resolution of 17500, 5 microscans, using 50 msec max injection time and an AGC target of 1×10^6, and a full mass range from 800-1850 m/z was recorded. The HCD trapping gas was optimized for maximum sensitivity for intact proteins. […]

For the molecule `C=CC(=O)N1C[C@H](C)N(c2nc(OCCN3CCOCC3)nc3c(F)c(-c4c(C)ccc5[nH]nc(C6CC6)c45)c(Cl)cc23)C[C@H]1C` (atropisomer, axis not shown) [Compound 113, 1-((2R,5S)-4-((R)-6-chloro-7-(3-cyclopropyl-5-methyl-1H-indazol-4-yl)-8-fluoro-2-(2-morpholinoethoxy)quina-zolin-4-yl)-2,5-dimethylpiperazin-1-yl)prop-2-en-1-one], the Binding % entry is reported as “++ (++ indicates binding activity from 50 to 80%)”.
Consider `C=CC(=O)N1C[C@H](C)N(c2nc(OCCN3CCC(F)(F)C3)nc3c(F)c(-c4c(C)ccc5[nH]nc(C6CC6)c45)c(Cl)cc23)C[C@H]1C` (atropisomer, axis not shown) [Compound 116, 1-((2R,5S)-4-((S)-6-chloro-7-(3-cyclopropyl-5-methyl-1H-indazol-4-yl)-2-(2-(3,3-difluoropyrrolidin-1-y)ethoxy)-8-fluoroquinazolin-4-yl)-2,5-dimethylpiperazin-1-yl)prop-2-en-1-one], for which the Binding % result was “+ (+ indicates binding activity greater than 0% and up to 50%)”.
Consider `C=CC(=O)N1C[C@H](C)N(c2nc(OCCN3CCC(F)(F)C3)nc3c(F)c(-c4c(C)ccc5[nH]nc(C6CC6)c45)c(Cl)cc23)C[C@H]1C` (atropisomer, axis not shown) [Compound 117, 1-((2R,5S)-4-((R)-6-chloro-7-(3-cyclopropyl-5-methyl-1H-indazol-4-yl)-2-(2-(3,3-difluoropyrrolidin-1-yl)ethoxy)-8-fluoroquinazolin-4-yl)-2,5-dimethylpiperazin-1-yl)prop-2-en-1-one], for which the Binding % entry is given as “+++ (+++ indicates binding activity greater than 80%)”.
Next, `C=CC(=O)N1C[C@H](C)N(c2nc(OCCN3CC(F)(F)C3)nc3c(F)c(-c4c(C)ccc5[nH]nc(C6CC6)c45)c(Cl)cc23)C[C@H]1C` (atropisomer, axis not shown) [Compound 121, 1-((2R,5S)-4-((S)-6-chloro-7-(3-cyclopropyl-5-methyl-1H-indazol-4-yl)-2-(2-(3,3-difluoroazetidin-1-yl)ethoxy)-8-fluoroquinazolin-4-yl)-2,5-dimethylpiperazin-1-yl)prop-2-en-1-one]: “+ (+ indicates binding activity greater than 0% and up to 50%)”.
Turning to `C=CC(=O)N1C[C@H](C)N(c2nc(OCCN3CC(F)(F)C3)nc3c(F)c(-c4c(C)ccc5[nH]nc(C6CC6)c45)c(Cl)cc23)C[C@H]1C` (atropisomer, axis not shown) [Compound 122, 1-((2R,5S)-4-((R)-6-chloro-7-(3-cyclopropyl-5-methyl-1H-indazol-4-yl)-2-(2-(3,3-difluoroazetidin-1-yl)ethoxy)-8-fluoroquinazolin-4-yl)-2,5-dimethylpiperazin-1-yl)prop-2-en-1-one], the Binding % entry is “+++ (+++ indicates binding activity greater than 80%)”.
For `C=CC(=O)N1C[C@H](C)N(c2nc(N3CC(N(C)C)C3)nc3c(F)c(-c4c(C)ccc5cnn(C)c45)c(Cl)cc23)C[C@H]1C` (atropisomer, axis not shown) [Compound 131, 1-((2R,5S)-4-((S)-6-chloro-7-(1,6-dimethyl-1H-indazol-7-yl)-2-(3-(dimethylamino)azetidin-1-yl)-8-fluoroquinazolin-4-yl)-2,5-dimethylpiperazin-1-yl)prop-2-en-1-one], the Binding % result was “+ (+ indicates binding activity greater than 0% and up to 50%)”.
With `C=CC(=O)N1[C@H](C)CN(c2nc(N3CC(N(C)C)C3)nc3c(F)c(-c4c(C)ccc5[nH]nc(C6CC6)c45)c(Cl)cc23)C[C@@H]1C` (atropisomer, axis not shown) [Compound 133, 1-((2S,6R)-4-((S)-6-chloro-7-(3-cyclopropyl-5-methyl-1H-indazol-4-yl)-2-(3-(dimethylamino)azetidin-1-yl)-8-fluoroquinazolin-4-yl)-2,6-dimethylpiperazin-1-yl)prop-2-en-1-one], the Binding % result is “+ (+ indicates binding activity greater than 0% and up to 50%)”.
Then `C=CC(=O)N1[C@H](C)CN(c2nc(N3CC(N(C)C)C3)nc3c(F)c(-c4c(C)ccc5[nH]nc(C6CC6)c45)c(Cl)cc23)C[C@@H]1C` (atropisomer, axis not shown) [Compound 134, 1-((2S,6R)-4-((R)-6-chloro-7-(3-cyclopropyl-5-methyl-1H-indazol-4-yl)-2-(3-(dimethylamino)azetidin-1-yl)-8-fluoroquinazolin-4-yl)-2,6-dimethylpiperazin-1-yl)prop-2-en-1-one], with “+++ (+++ indicates binding activity greater than 80%)”.
Then `C=CC(=O)N1C[C@H](C)N(c2nc(OCCN3CCC(F)(F)C3)nc3c(F)c(-c4c(C)ccc5cnn(C)c45)c(Cl)cc23)C[C@H]1C` (atropisomer, axis not shown) [Compound 135, 1-((2R,5S)-4-((S)-6-chloro-2-(2-(3,3-difluoropyrrolidin-1-yl)ethoxy)-7-(1,6-dimethyl-1H-indazol-7-yl)-8-fluoroquinazolin-4-yl)-2,5-dimethylpiperazin-1-yl)prop-2-en-1-one], with “+ (+ indicates binding activity greater than 0% and up to 50%)”; and `C=CC(=O)N1C[C@H](C)N(c2nc(OCCN3CCC(F)(F)C3)nc3c(F)c(-c4c(C)ccc5cnn(C)c45)c(Cl)cc23)C[C@H]1C` (atropisomer, axis not shown) [Compound 136, 1-((2R,5S)-4-((R)-6-chloro-2-(2-(3,3-difluoropyrrolidin-1-yl)ethoxy)-7-(1,6-dimethyl-1H-indazol-7-yl)-8-fluoroquinazolin-4-yl)-2,5-dimethylpiperazin-1-yl)prop-2-en-1-one], with “+++ (+++ indicates binding activity greater than 80%)”; and `C=CC(=O)N1C[C@H](C)N(c2nc(N3CC(NC)C3)nc3c(F)c(-c4c(C)ccc5cnn(C)c45)c(Cl)cc23)C[C@H]1C` (atropisomer, axis not shown) [Compound 139, 1-((2R,5S)-4-((S)-6-chloro-7-(1,6-dimethyl-1H-indazol-7-yl)-8-fluoro-2-(3-(methylamino)azetidin-1-yl)quinazolin-4-yl)-2,5-dimethylpiperazin-1-yl)prop-2-en-1-one], with “+ (+ indicates binding activity greater than 0% and up to 50%)”.
As to `C=CC(=O)N1[C@H](C)CN(c2nc(N3CC(N(C)C)C3)nc3c(F)c(-c4c(C)ccc5cnn(C)c45)c(Cl)cc23)C[C@@H]1C` (atropisomer, axis not shown) [Compound 141, 1-((2S,6R)-4-((S)-6-chloro-7-(1,6-dimethyl-1H-indazol-7-yl)-2-(3-(dimethylamino)azetidin-1-yl)-8-fluoroquinazolin-4-yl)-2,6-dimethylpiperazin-1-yl)propan-2-en-1-one], the Binding % entry is “+ (+ indicates binding activity greater than 0% and up to 50%)”.
As to `C=CC(=O)N1[C@H](C)CN(c2nc(N3CC(N(C)C)C3)nc3c(F)c(-c4c(C)ccc5cnn(C)c45)c(Cl)cc23)C[C@@H]1C` (atropisomer, axis not shown) [Compound 142, 1-((2S,6R)-4-((R)-6-chloro-7-(1,6-dimethyl-1H-indazol-7-yl)-2-(3-(dimethylamino)azetidin-1-yl)-8-fluoroquinazolin-4-yl)-2,6-dimethylpiperazin-1-yl)prop-2-en-1-one], the Binding % entry is “+++ (+++ indicates binding activity greater than 80%)”.
